Experimental data as given in DBAASP.
Converted amounts (≈) assume the structure as drawn.

Key:
Experiment in all cases: ≥ marks a high value that may be exact or a test limit, other limits are often not marked, values filed in µg/mL are converted to µM
Candida glabrata 090902 = system: Candida glabrata 090902
[1] = system: Enterococcus faecalis 981
[2] = system: Nocardia asteroides 201118
[3] = system: Psychrobacter faecalis X29
[4] = system: Staphylococcus aureus ATCC 25923
[5] = system: Escherichia coli ATCC 25922
[6] = system: Klebsiella pneumoniae ATCC 700603
[7] = system: Pseudomonas aeruginosa ATCC 27853
[8] = system: Staphylococcus aureus ATCC 29213
[9] = system: Staphylococcus aureus ATCC 33591
[10] = system: Staphylococcus aureus ATCC 700699
[11] = system: Cronobacter muytjensii ATCC 51329
[12] = system: Cronobacter sakazakii ATCC BAA-894
[13] = system: Cronobacter sakazakii DPC 6440
[14] = system: Cronobacter sakazakii DSM 4485
[15] = system: Escherichia coli NCIMB 11843
[16] = system: Klebsiella pneumoniae NCIMB 13218
[17] = system: Pseudomonas fluorescens NCIMB 9046
[18] = system: Salmonella enterica subsp. enterica serovar Typhimurium LT2
[19] = system: Staphylococcus aureus NCTC 8325-4
[20] = system: Staphylococcus aureus Newman
[21] = system: Staphylococcus aureus RF122
[22] = system: Staphylococcus aureus RN4220
[23] = system: Staphylococcus aureus SA113
[24] = system: Bacillus cereus ATCC 11778
[25] = system: Escherichia coli ATCC 35218
[26] = system: Pseudomonas aeruginosa ATCC 9027
[27] = system: Acinetobacter baumannii ATCC BAA-1605
[28] = system: Enterococcus faecium ATCC 700221
[29] = system: Bacillus subtilis ATCC 62037
[30] = system: Candida albicans ATCC 10231
[31] = system: Escherichia coli ATCC 27325
[32] = system: Pseudomonas putida ATCC 17426
[33] = system: Saccharomyces cerevisiae ATCC 44774
[34] = system: Salmonella enterica subsp. enterica serovar Enteritidis ATCC 13076
[35] = system: Staphylococcus aureus ATCC 15752
[36] = system: Streptococcus mutans ATCC 25175
[37] = system: Cryptococcus neoformans ATCC 34881

CC[C@H](C)[C@@H]1NC(=O)[C@H](CCC(=O)O)NC(=O)[C@@H](NC(=O)[C@@H](NC(=O)[C@@H](NC(=O)[C@H](CCCCN)NC(=O)[C@@H]2CCCN2C(=O)[C@H](CC(C)C)NC(=O)[C@H](Cc2ccccc2)NC(=O)[C@H](CC(C)C)NC(=O)[C@@H]2CCCN2C(=O)[C@H](CC(C)C)NC(=O)[C@@H](N)Cc2ccccc2)[C@@H](C)CC)[C@@H](C)CC)CSSC[C@@H](C(=O)O)NC(=O)[C@H](CCCCN)NC(=O)[C@H](CCCCN)NC(=O)[C@H]([C@@H](C)O)NC1=O [FLPLFLPKIICEITKKC]
MIC (Candida glabrata 090902): 25 µM (≈ 50.1 µg/mL) | MIC [1]: ≥ 50 µM | MIC [2]: 25 µM (≈ 50.1 µg/mL) | MIC [3]: ≥ 50 µM | MIC [4]: 100 µM (≈ 200 µg/mL)

CC[C@H](C)[C@H](NC(=O)[C@H](CC(=O)O)NC(=O)[C@H](CCCCN)NC(=O)[C@H](C)NC(=O)[C@H](C)NC(=O)CNC(=O)[C@H](CCCCN)NC(=O)[C@H](CC(C)C)NC(=O)[C@@H](NC(=O)[C@H](CC(=O)O)NC(=O)[C@H](C)NC(=O)[C@@H](NC(=O)CN)C(C)C)[C@@H](C)CC)C(=O)N[C@@H](C)C(=O)NCC(=O)N[C@@H](Cc1cnc[nH]1)C(=O)N[C@@H](CC(C)C)C(=O)N[C@@H](C)C(=O)N[C@@H](CO)C(=O)N[C@@H](CCCCN)C(=O)N[C@H](C(=O)N[C@@H](CCSC)C(=O)N[C@@H](CC(N)=O)C(=O)N[C@@H](CCCCN)C(=O)N[C@@H](CC(C)C)C(N)=O)C(C)C [GVADILKGAAKDIAGHLASKVMNKL]
MIC [5]: > 100 µM | MIC [6]: 100 µM (≈ 252 µg/mL) | MIC [7]: > 100 µM | MIC [8]: > 100 µM | MIC [9]: ≥ 100 µM | MIC [10]: ≥ 100 µM

CC[C@H](C)[C@H](NC(=O)[C@H](CC(=O)O)NC(=O)[C@H](CCCCN)NC(=O)[C@H](C)NC(=O)[C@H](C)NC(=O)CNC(=O)[C@H](CCCCN)NC(=O)[C@H](CC(C)C)NC(=O)[C@@H](NC(=O)[C@H](CC(=O)O)NC(=O)[C@@H](NC(=O)[C@@H](NC(=O)CN)C(C)C)C(C)C)[C@@H](C)CC)C(=O)N[C@@H](C)C(=O)NCC(=O)N[C@@H](C)C(=O)N[C@@H](CC(C)C)C(=O)N[C@@H](C)C(=O)N[C@@H](CO)C(=O)N[C@@H](CCCCN)C(=O)N[C@H](C(=O)N[C@@H](CCSC)C(=O)N[C@@H](CC(N)=O)C(=O)N[C@@H](CCCCN)C(=O)N[C@@H](CC(C)C)C(N)=O)C(C)C [GVVDILKGAAKDIAGALASKVMNKL]
MIC [5]: 100 µM (≈ 248 µg/mL) | MIC [6]: 100 µM (≈ 248 µg/mL) | MIC [7]: > 100 µM | MIC [8]: > 100 µM | MIC [9]: ≥ 100 µM | MIC [10]: ≥ 100 µM

CC[C@H](C)[C@H](N)C(=O)N[C@@H](CCCCN)C(=O)N[C@@H](CCC(N)=O)C(=O)NCC(=O)N[C@@H](CC(C)C)C(=O)N1CCC[C@H]1C(=O)N[C@@H](CCC(N)=O)C(=O)N[C@@H](CCC(=O)O)C(=O)O [IKQGLPQE]
MIC [11]: ≥ 2500 µM | MIC [12]: ≥ 2500 µM | MIC [13]: ≥ 2500 µM | MIC [14]: ≥ 2500 µM | MIC [15]: ≥ 2500 µM | MIC [16]: ≥ 2500 µM | MIC [17]: ≥ 2500 µM | MIC [18]: ≥ 2500 µM | MIC [19]: ≥ 2500 µM | MIC [20]: ≥ 2500 µM | MIC [21]: ≥ 2500 µM | MIC [22]: ≥ 2500 µM | MIC [23]: ≥ 2500 µM

CC(C)C[C@H](NC(=O)[C@@H](NC(=O)[C@@H](N)CCCCN)C(C)C)C(=O)N[C@@H](CCCCN)C(=O)N[C@@H](C)C(=O)N[C@@H](C)C(=O)N[C@@H](C)C(N)=O [KVLKAAA]
MIC [24]: ≥ 50 µM | MIC [25]: ≥ 50 µM | MIC [26]: > 50 µM | MIC [4]: > 50 µM

CC[C@H](C)[C@H](NC(=O)[C@H](CCCCN)NC(=O)[C@H](CCCCN)NC(=O)[C@H](Cc1ccccc1)NC(=O)[C@H](CC(C)C)NC(=O)[C@H](CCCN=C(N)N)NC(=O)[C@@H](N)CCCN=C(N)N)C(=O)N[C@@H](CC(C)C)C(=O)N[C@@H](CCCCN)C(=O)N[C@@H](Cc1ccc(O)cc1)C(=O)N[C@@H](CC(C)C)C(N)=O [RRLFKKILKYL]
MIC [27]: 3.04 µM (≈ 4.5 µg/mL) | MIC [28]: 11.5 µM (≈ 17 µg/mL) | MIC [5]: 23.3 µM (≈ 34.5 µg/mL) | MIC [6]: 11.5 µM (≈ 17 µg/mL) | MIC [7]: 11.5 µM (≈ 17 µg/mL) | MIC [9]: 23.3 µM (≈ 34.5 µg/mL)

CC[C@H](C)[C@H](NC(=O)[C@@H]1CCCN1C(=O)[C@H](Cc1c[nH]c2ccccc12)NC(=O)[C@H](CCC(N)=O)NC(=O)[C@H](CCCN=C(N)N)NC(=O)[C@@H](NC(=O)[C@@H](NC(=O)[C@@H](N)CCCN=C(N)N)C(C)C)C(C)C)C(=O)NCC(=O)N[C@@H](CCCN=C(N)N)C(=O)N[C@H](C(=O)N[C@H](C(=O)N[C@@H](CCCN=C(N)N)C(=O)N[C@@H](CCCN=C(N)N)C(=O)N[C@H](C(=O)N[C@H](C(=O)N[C@@H](CCCN=C(N)N)C(=O)N[C@@H](CCCN=C(N)N)C(=O)N[C@H](C(=O)N[C@H](C(=O)N[C@@H](CCCN=C(N)N)C(=O)N[C@@H](Cc1ccccc1)C(=O)O)C(C)C)C(C)C)C(C)C)C(C)C)C(C)C)C(C)C [RVVRQWPIGRVVRRVVRRVVRF]
MIC [29]: 0.717 µM (≈ 2 µg/mL) | MIC [30]: 0.179 µM (≈ 0.5 µg/mL) | MIC [31]: 1.43 µM (≈ 4 µg/mL) | MIC [32]: 1.43 µM (≈ 4 µg/mL) | MIC [33]: 0.179 µM (≈ 0.5 µg/mL) | MIC [34]: 0.717 µM (≈ 2 µg/mL) | MIC [35]: 0.717 µM (≈ 2 µg/mL) | MIC [36]: 0.717 µM (≈ 2 µg/mL)

CC(C)[C@H](NC(=O)[C@H](CCCCN)NC(=O)CNC(=O)CNC(=O)[C@H](CCC(N)=O)NC(=O)[C@H](CCCCN)NC(=O)CNC(=O)[C@H](CCCN=C(N)N)NC(=O)CNC(=O)[C@@H](N)CO)C(=O)N[C@@H](CCCN=C(N)N)C(=O)N[C@@H](C)C(=O)N[C@@H](CCCCN)C(=O)N[C@@H](C)C(=O)N[C@@H](CCCCN)C(=O)N[C@H](C(=O)N[C@@H](CCCN=C(N)N)C(=O)N[C@@H](CO)C(=O)N[C@@H](CO)C(=O)O)[C@@H](C)O [SGRGKQGGKVRAKAKTRSS]
MIC [29]: 2.04 µM (≈ 4 µg/mL) | MIC [30]: 16.3 µM (≈ 32 µg/mL) | MIC [37]: 2.04 µM (≈ 4 µg/mL) | MIC [31]: 4.08 µM (≈ 8 µg/mL) | MIC [32]: 8.17 µM (≈ 16 µg/mL) | MIC [33]: 8.17 µM (≈ 16 µg/mL) | MIC [34]: 16.3 µM (≈ 32 µg/mL) | MIC [35]: 8.17 µM (≈ 16 µg/mL) | MIC [36]: 16.3 µM (≈ 32 µg/mL)

CC(C)C[C@H](NC(=O)[C@H](CC(N)=O)NC(=O)[C@H](CCC(=O)O)NC(=O)[C@H](CC(N)=O)NC(=O)[C@H](CC(C)C)NC(=O)[C@@H](N)C(C)C)C(=O)N[C@@H](C)C(=O)N[C@@H](C)C(=O)O [VLNENLAA]
MIC [11]: ≥ 2500 µM | MIC [12]: ≥ 1250 µM | MIC [13]: ≥ 1250 µM | MIC [14]: ≥ 312 µM | MIC [15]: ≥ 2500 µM | MIC [16]: ≥ 2500 µM | MIC [7]: 64 µM (≈ 53.9 µg/mL) | MIC [17]: ≥ 2500 µM | MIC [18]: ≥ 2500 µM | MIC [19]: ≥ 2500 µM | MIC [20]: ≥ 1250 µM | MIC [21]: ≥ 156 µM | MIC [22]: ≥ 312 µM | MIC [23]: ≥ 1250 µM
